How the values were obtained:
[1] = tested on: human leukemia cell line CCRF-CEM; assay: Telomerase inhibitory activity in cell system (Test Example 3, TRAP assay of cell extract); format: cell-based
Method: After a test compound was allowed to contact with human leukemia cell line CCRF-CEM for 7 days, a cell extraction solution was prepared and the enzyme activity was measured by a known method (U.S. Patent 5,629,154). That is, the cell extraction solution was prepared using a buffer solution containing 0.5% CHAPS {3-[(3-cholamidopropyl)dimethylammonio]-1-propanesulfonate}. using the extraction solution, TRAP (Telomeric Repeat Amplification Protocol) assay was carried out (TRAPEZE™ ELISA Telomerase Detection Kit, manufactured by Oncor Co.) Inhibitory ratio was calculated based on the ratio of the enzyme activity in the extraction solution from the cells treated with the test compound relative to the enzyme activity in the extraction solution from the test compound-untreated cells.

[2] = tested on: human leukemia cell line CCRF-CEM; assay: Induction of the reduction of telomere in cell system (Test Example 4); format: cell-based
Method: After a test compound was. allowed to contact with human leukemia cell line CCRF-CEM for 21 days, a chromosomal DNA was extracted and the telomere length was measured by a known method (Biotechniques, 23: 476-484 (1997)). That is, the extracted chromosomal DNA was adsorbed on a membrane, and hybridization was carried out by using a labeled oligonucleotide probe having a sequence complementary to the telomere sequence. The signal of the label on the membrane proportional to the telomere DNA length was detected and digitalized.

[3] = contact for 7 days, 8.9, 13 µmol/L
[4] = contact for 21 days, 13, 30 µmol/L
[5] = contact for 7 days, 2, 4.4 µmol/L
[6] = contact for 21 days, 2, 4.4 µmol/L

Structure (SMILES)	cytotoxicity [1, 3]	inhibition of intracellular telomerase [1, 3]	cytotoxicity [2, 4]	telomere reduction [2, 4]	cytotoxicity [1, 5]	inhibition of intracellular telomerase [1, 5]	cytotoxicity ([1]; contact for 7 days, concentrations higher than 4.4 µmol/L)	cytotoxicity [2, 6]	telomere reduction [2, 6]	cytotoxicity ([2]; contact for 21 days, concentrations higher than 4.4 µmol/L)
CC1=C(CCC(=O)O)c2cc3[nH]c(cc4nc(cc5[nH]c(cc1n2)c(CCC(=O)O)c5C)C(C)=C4CCC(=O)O)c(CCC(=O)O)c3C [Compound 1]	no remarkable cytotoxicity was shown	inhibited intracellular telomerase	no remarkable cytotoxicity was shown	induced telomere reduction						
C[n+]1ccc(-c2c3nc(c(-c4cc[n+](C)cc4)c4ccc([nH]4)c(-c4cc[n+](C)cc4)c4nc(c(-c5cc[n+](C)cc5)c5ccc2[nH]5)C=C4)C=C3)cc1 [TMPyP4]					no remarkable cytotoxicity was shown	did not inhibit telomerase	no cellular protein was recovered at higher concentrations because of the cytotoxicity	no remarkable cytotoxicity was shown	did not induce telomere reduction	no chromosomal DNA was recovered at higher concentrations because of the cytotoxicity

Reference: patent EP1145713A1, “TELOMERASE INHIBITORS” (KYOWA HAKKO KOGYO CO., LTD., priority 1999, dated 2000)
